Test results from article PMC11811597, “Phenomics‐Based Discovery of Novel Orthosteric Choline Kinase Inhibitors” (Angewandte Chemie (International Ed. in English), 2025).

How the values were obtained:
CHKA [1] = target: T1, CHKA (Homo sapiens, UniProt P35790); assay: Differential scanning fluorimetry (DSF); type: binding; set-up: host or cells: E. coli BL21(DE3); settings: 10 µM compound, 2 µM CHKA
Protocol: mM NaCl, 5% glycerol, 500 mM imidazole, 0.5% TCEP, pH 7.5), the eluent was concentrated, and further purified by size exclusion chromatography using a HiLoad 16/600 Superdex S200 column (Cytiva) pre-equilibrated in Buffer C (20 mM HEPES, 150 mM NaCl, pH 7.5). The resulting protein purity was assessed by SDS-PAGE, and protein identity was confirmed by tryptic digest analysis. Protein concentration was determined to be 35.5 mg/mL, and was calculated using a theoretical molar extinction coefficient of 58830 M-1cm-1 as determined by ProtParam.[5] […]
Differential Scanning Fluorimetry (DSF)
DSF buffer (20 mM HEPES, 150 mM NaCl, 0.5 mM TCEP, pH 7.5) containing 5x SYPRO Orange (Thermo Fisher Scientific) and CHKA (2 µM) was incubated with 10 µM compound at 2% DMSO final concentration in a 96-well semi-skirted real time PCR plate. Fluorescence was measured in each well over a 40-80 °C gradient using a Stratagen MX3005p qPCR instrument (Agilent Technologies). […]

[2] = tested on: MCF7, MDA‐MB‐231, HEK293, HepG2, U2OS and K562 cells; assay: 72 h cell viability assay (Cell Titer-Glo); type: cell-based, human; settings: 0-50 μM
Text: We compared morphological fingerprints of multiple parameters to assess overall biological similarity (Biol. Sim.) (Figure 1B).
A-366 and UNC0638 were purchased from Tocris. ARIAD and V-11-07-11 were purchased from Wuxi Apptec. UNC0737 and UNC0965 were synthesised as previously described.[1] Hemicholinium-3 and pyruvate kinase/lactic dehydrogenase enzymes were purchased from Sigma Aldrich. Aqueous and organic solvents were MS-grade and acquired by Sigma Aldrich unless stated otherwise.
MDA-MB-231, MCF7 and HEK293 cells were cultured in DMEM (Gibco, #11965092) supplemented with 10% FBS. K562 were cultured in IMDM (Gibco, #12440053) supplemented with 10% FBS. HepG2 were cultured in MEM (Gibco, #11095080) supplemented with 10 % FBS. […]
cultured in McCoy’s 5A (Sigma, M8403) supplemented with 10 % FBS and 1x GlutaMAX (Gibco, #35050061). Cells were maintained at 37 °C in a humidified 5% CO2 atmosphere. Peripheral blood mononuclear cells (PBMC) were isolated from healthy blood donors by density centrifugation.
MDA-MB-231, MCF7 or HEK293 cells (7.5 × 10^4 cells/mL) were each plated into x1 white 384-well polystyrene plate (Greiner Bio-One Ltd). A-366, […] and UNC0737 were directly added to each well of the cell line plates, at final concentrations 0-50 μM and incubated for 72 h at 37 °C/ 5% CO2.
Cell Titer-Glo® reagent was added to each well and total luminescence readings were performed within 15 min using the PHERAstar FSX (BMG Labtech). The cell viability results were normalised to the DMSO control and plotted using the sigmoidal dose-response (variable slope) equation in […]
Chemical Proteomics Drug Pulldown
For lysate generation MCF7 cells were grown until approximately 80% confluency before being pelleted and washed with PBS. […]
MDA-MB-231, […], HepG2, U2OS and K562 cells following treatment with A-366, UNC0638 and UNC0737 after 72 h measured by Cell Titer Glo assay (n=3). […]

[3] = tested on: primary human cell‐based tissue and disease models; assay: BioMAP Diversity PLUS panel; settings: 12 systems, Pearson's correlation >0.7
Text: Having confirmed that UNC0638 and UNC0737 are potent bona fide CHKA inhibitors, we next turned our attention to further investigate the role of CHKA in cellular signalling. While CHKA has been studied extensively in the context of malignant disease, there has been a growing acknowledgment of its relevance in immune metabolism.[9, 10] […] We profiled UNC0638 and UNC0737 alongside the orthogonal CHKA inhibitors V‐11‐0711 and ARIAD against the BioMAP Diversity PLUS panel (Figures S7).[24] This set comprises 148 distinct biomarkers across 12 systems, including panels for systemic immune responses. […] The decrease in IgG secretion was accompanied by a reduction in stimulation‐induced B cell maturation into CD27^+IgD^− memory CD19^+ B cells (Figure 4D). […]
consecutive concentrations change in the same direction relative to vehicle controls, are outside of the significance envelope, and have at least one concentration with an effect size > 20% (|log10ratio| > 0.1). Biomarker key activities are described as modulated if these activities increase in some systems, but decrease in others. Cytotoxicity is indicated on the profile plot by a thin black arrow above the x- […]
Cytotoxicity and antiproliferative arrows only require one concentration to meet the indicated threshold for profile annotation. […]

CHKA [4] = target: T1, CHKA; assay: Isothermal calorimetry (ITC); type: binding; set-up: host or cells: E. coli BL21(DE3)
Protocol: mM NaCl, 5% glycerol, 500 mM imidazole, 0.5% TCEP, pH 7.5), the eluent was concentrated, and further purified by size exclusion chromatography using a HiLoad 16/600 Superdex S200 column (Cytiva) pre-equilibrated in Buffer C (20 mM HEPES, 150 mM NaCl, pH 7.5). The resulting protein purity was assessed by SDS-PAGE, and protein identity was confirmed by tryptic digest analysis. Protein concentration was determined to be 35.5 mg/mL, and was calculated using a theoretical molar extinction coefficient of 58830 M-1cm-1 as determined by ProtParam.[5]
Isothermal Calorimetry (ITC)
ITC experiments were performed in a buffer containing 20 mM HEPES pH 7.5 and 200 mM NaCl, using an VP-ITC microcalorimeter (MicroCal) at 15 °C. The protein concentration was 200 µM and compounds were tested at 20 µM. The titrations were conducted using an initial injection of 4 μL followed by further 29 injections of 8 μL each. Thermodynamic parameters were calculated using ΔG = ΔH − TΔS = −RT ln KB, where ΔG, ΔH, and ΔS are the changes in free energy, enthalpy, and entropy of binding, respectively. Single binding models were employed to fit the data. […]

T1 sequence (P35790 75-457 limits assumed): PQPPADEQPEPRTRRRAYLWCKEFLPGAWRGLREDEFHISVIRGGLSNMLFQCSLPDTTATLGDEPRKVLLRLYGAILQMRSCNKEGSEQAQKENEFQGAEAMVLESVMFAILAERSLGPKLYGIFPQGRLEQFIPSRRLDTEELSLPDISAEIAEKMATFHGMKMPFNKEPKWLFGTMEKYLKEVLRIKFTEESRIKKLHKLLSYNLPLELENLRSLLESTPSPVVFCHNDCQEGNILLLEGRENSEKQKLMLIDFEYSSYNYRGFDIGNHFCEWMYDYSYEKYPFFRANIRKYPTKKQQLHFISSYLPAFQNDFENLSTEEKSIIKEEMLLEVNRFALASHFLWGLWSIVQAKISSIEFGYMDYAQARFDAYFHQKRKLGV

Structure (SMILES)	thermal stabilisation of CHKA (DSF) (CHKA [1])	effect on cell viability [2]	clustering of overall BioMAP responses across all biomarkers [3]	Kd (CHKA [4])
COc1cc2c(NC3CCN(C(C)C)CC3)nc(N3CCC(F)(F)CC3)nc2cc1OCCCN1CCCC1 [UNC0642]	exhibited CHKA stabilisation albeit to lesser degree than UNC0737	–	–	–
COc1cc2c(cc1OCCCN1CCCC1)N=C(N)C21CCC1 [A‐366]	not	less efficient in inducing cancer cell death	did not exhibit any overlap	–
COc1cc2nc(N3CCCN(C)CC3)nc(NC3CCN(Cc4ccccc4)CC3)c2cc1OC [BIX‐01294]	exhibited CHKA stabilisation albeit to lesser degree than UNC0737	–	–	–
C[N+]1(C)CCOC(O)(c2ccc(-c3ccc(C4(O)C[N+](C)(C)CCO4)cc3)cc2)C1 (stereo not drawn) [HC3, hemicholinium‐3]	–	–	–	40.6 nM
